These results are taken from patent US20240246908A1 (ORION CORPORATION, priority 2021, published 2024).

Structures are written as SMILES. Bounds are passed on as bounds.

In the assay the test system is YAP-TEAD. The assay is described as follows: TEAD inhibition, Hippo Pathway TEAD Reporter MCF-7 luciferase assay. The format is cell-based. The note with it: Homo sapiens, MCF7, 24 h, Hippo Pathway TEAD Reporter MCF-7 cells, luciferase activity after 24 h; read-out: IC50 of the test compounds on YAP-TEAD inhibition (Group). The protocol:
TEAD inhibition was assayed using Hippo Pathway TEAD Reporter—MCF-7 cell line (BPS Bioscience, Catalog #: 60618) which contains firefly luciferase gene under the control of TEAD responsive elements. In the cell line, YAP1 remains in the nucleus inducing constitutive expression of luciferase reporter. Amount of expressed luciferase was detected using ONE-Glo Luciferase Assay System (Promega) and measuring plates with Enspire Multimode Plate Reader (PerkinElmer).
Hippo Pathway TEAD Reporter—MCF-7 cells were plated on white/clear Poly-D-Lysine coated 384 plates (Corning #356660) at the density of 8500 cells/well. Next day test compounds (11 concentrations with 4 replicates) and DMSO control (0.1%) were added to the plate. After 24 h cells were lysed and luciferase activity was measured. The half maximal inhibitory concentration (IC50) of the test compounds on YAP-TEAD inhibition was determined.
Turning to `COc1ccc(COc2cccc(F)c2)cc1NC(=O)[C@H]1NC(=O)C[C@@H]1C` (racemic) [Compound 6, rac-(trans)-N-(5-((3-Fluorophenoxy)methyl)-2-methoxyphenyl)-3-methyl-5-oxopyrrolidine-2-carboxamide], the half-inhibitory concentration (IC50) – broadly, the point on the concentration scale where inhibition reaches its midpoint – was in the range of 0.301 to 2 µM. Under `COc1ccc(COc2cccc(F)c2)cc1NC(=O)[C@H]1NC(=O)C[C@H]1C` (racemic) [Compound 20, rac-(cis)-N-(5-((3-Fluorophenoxy)methyl)-2-methoxyphenyl)-3-methyl-5-oxo-pyrrolidine-2-carboxamide] stands 0.301 to 2 µM; under `COc1ccc(Oc2cccc(C(F)(F)F)c2)cc1NC(=O)[C@@H]1CCC(=O)N1C(C)=O` (stereo in doubt) [Compound 30, 1-Acetyl-N-(2-methoxy-5-(3-(trifluoromethyl)phenoxy)phenyl)-5-oxo-pyrrolidine-2-carboxamide], 0.05 to 0.3 µM; under `COc1ccc(Oc2ccc(C(F)(F)F)cc2)cc1NC(=O)[C@H]1CCC(=O)N1` (stereo in doubt) [Compound 45, N-(2-Methoxy-5-(4-(trifluoromethyl)phenoxy)phenyl)-5-oxopyrrolidine-2-carboxamide], under 0.05 µM. The value for `COc1ccc(Oc2ccc(C(F)(F)F)cc2)cc1NC(=O)[C@@H]1CCC(=O)N1` (stereo in doubt) [Compound 46, N-(2-Methoxy-5-(4-(trifluoromethyl)phenoxy)phenyl)-5-oxopyrrolidine-2-carboxamide] was 0.301 to 2 µM; that for `COc1cc(NC(=O)C2CCC(=O)N2C)cc(OC2CCC(F)(F)CC2)c1` (stereo in doubt) [Compound 275, (R)—N-(3-((4,4-Difluorocyclohexyl)oxy)-5-methoxyphenyl)-1-methyl-5-oxo-pyrrolidine-2-carboxamide] was 0.05 to 0.3 µM; that for `COc1ccc(Oc2ccc(C(F)(F)F)cc2)cc1NC(=O)C1CCC(=O)N1` (stereo not drawn) [Compound 1, N-(2-Methoxy-5-(4-(trifluoromethyl)phenoxy)phenyl)-5-oxo-pyrrolidine-2-carboxamide] was under 0.05 µM. As to `COc1ccc(Oc2cccc(F)c2)cc1NC(=O)C1CCC(=O)N1C(C)=O` (stereo not drawn) [Compound 2, 1-Acetyl-N-(5-(3-fluorophenoxy)-2-methoxyphenyl)-5-oxopyrrolidine-2-carboxamide], the half-maximal inhibitory concentration (IC50) is 0.301 to 2 µM. The value for `COc1ccc(COc2cccc(F)c2)cc1NC(=O)C1CCC(=O)N1C(C)=O` (stereo not drawn) [Compound 3, 1-Acetyl-N-(5-((3-fluorophenoxy)methyl)-2-methoxyphenyl)-5-oxopyrrolidine-2-carboxamide] was 0.301 to 2 µM; that for `COc1cc(OC)c(NC(=O)C2CCC(=O)N2)cc1COc1cccc(F)c1` (stereo not drawn) [Compound 4, N-(5-((3-Fluorophenoxy)methyl)-2,4-dimethoxyphenyl)-5-oxopyrrolidine-2-carboxamide] was 0.301 to 2 µM; that for `COc1ccc(COc2cccc(F)c2)cc1NC(=O)C1CN(CCF)C1` [Compound 5, 1-(2-Fluoroethyl)-N-(5-((3-fluorophenoxy)methyl)-2-methoxyphenyl)azetidine-3-carboxamide] was 0.301 to 2 µM. As for `O=C1CC(C(=O)Nc2cccc(Oc3cccc(C(F)(F)F)c3)c2)N1` (stereo not drawn) [Compound 7, 4-Oxo-N-(3-(3-(trifluoromethyl)phenoxy)phenyl)azetidine-2-carboxamide], the concentration for half-maximal inhibition (IC50) is 0.301 to 2 µM. With `COc1ccc(Oc2cccc(C(F)(F)F)c2)cc1NC(=O)C1CC(=O)N1` (stereo not drawn) [Compound 8, N-(2-Methoxy-5-(3-(trifluoromethyl)phenoxy)phenyl)-4-oxoazetidine-2-carboxamide], the IC50 is 0.05 to 0.3 µM.

Regarding `COc1ccc(Oc2cccc(C(F)(F)F)c2)cc1NC(=O)CC1CCC(=O)N1` (stereo not drawn) [Compound 9, N-(2-Methoxy-5-(3-(trifluoromethyl)phenoxy)phenyl)-2-(5-oxopyrrolidin-2-yl)acetamide], the IC50 was 0.301 to 2 µM. The value for `COc1ccc(Oc2cccc(C(F)(F)F)c2)cc1NC(=O)C1CCC(=O)N1` (stereo not drawn) [Compound 10, N-(2-Methoxy-5-(3-(trifluoromethyl)phenoxy)phenyl)-5-oxopyrrolidine-2-carboxamide] was 0.05 to 0.3 µM; that for `COc1ccc(Oc2cccc(C(F)(F)F)c2)cc1NC(=O)C1CCC(=O)N1C` (stereo not drawn) [Compound 11, N-(2-Methoxy-5-(3-(trifluoromethyl)phenoxy)phenyl)-1-methyl-5-oxopyrro-lidine-2-carboxamide] was 0.05 to 0.3 µM; that for `COc1ccc(Oc2cccc(C(F)(F)F)c2)cc1NC(=O)C1CCS(=O)(=O)C1` (stereo not drawn) [Compound 12, N-(2-Methoxy-5-(3-(trifluoromethyl)phenoxy)phenyl)tetrahydrothiophene-3-carboxamide 1,1-dioxide] was 0.301 to 2 µM.

For `COc1ccc(COc2cccc(F)c2)cc1NC(=O)C1CCS(=O)(=O)N1C` (stereo not drawn) [Compound 13, N-(5-((3-Fluorophenoxy)methyl)-2-methoxyphenyl)-2-methylisothiazolidine-3-carboxamide 1,1-dioxide], the concentration for half-maximal inhibition (IC50) lay within 0.301 to 2 µM. Under `COc1ccc(Oc2cccc(C(F)(F)F)c2)cc1NC(=O)C1(C)CCC(=O)N1` (stereo not drawn) [Compound 14, N-(2-Methoxy-5-(3-(trifluoromethyl)phenoxy)phenyl)-2-methyl-5-oxopyrrolidi-ne-2-carboxamide] stands 0.301 to 2 µM.

As for `COc1ccc(Oc2cccc(F)c2)cc1NC(=O)C1(C)CCC(=O)N1` (stereo not drawn) [Compound 15, N-(5-(3-Fluorophenoxy)-2-methoxyphenyl)-2-methyl-5-oxopyrrolidine-2-carboxamide], the IC50 fell in the range of 0.301 to 2 µM. On to `O=C1CCC(C(=O)Nc2cccc(Oc3cccc(C(F)(F)F)c3)c2)N1` (stereo not drawn) [Compound 16, 5-Oxo-N-(3-(3-(trifluoromethyl)phenoxy)phenyl) pyrrolidine-2-carboxamide], for which the IC50 is 0.301 to 2 µM.

For the molecule `O=C1CCC(C(=O)Nc2cc(COc3cccc(F)c3)cc3ccoc23)N1` (stereo not drawn) [Compound 17, N-(5-((3-Fluorophenoxy)methyl)benzofuran-7-yl)-5-oxopyrrolidine-2-carboxamide], the half-maximal inhibitory concentration (IC50) was in the range of 0.05 to 0.3 µM. Under `COc1ccc(Oc2cccc(F)c2)cc1NC(=O)C12CCC(=O)N1CCS2` (stereo not drawn) [Compound 18, N-(5-(3-Fluorophenoxy)-2-methoxyphenyl)-5-oxotetrahydropyrrolo[2,1-b]-thiazole-7a(5H)-carboxamide] stands 0.05 to 0.3 µM. The value for `COc1ccc(Oc2cccc(C(F)(F)F)c2)cc1NC(=O)C12CCC(=O)N1CCS2` (stereo not drawn) [Compound 19, N-(2-Methoxy-5-(3-(trifluoromethyl)phenoxy)phenyl)-5-oxotetrahydropyrrolo[2,1-b]thiazole-7a(5H)-carboxamide] was 0.05 to 0.3 µM; that for `COc1ccc(/C=C/C2CCC(F)(F)CC2)cc1NC(=O)C1CCC(=O)N1` (stereo not drawn) [Compound 21, (E)-N-(5-(2-(4,4-Difluorocyclohexyl)vinyl)-2-methoxyphenyl)-5-oxopyrroli-dine-2-carboxamide] was under 0.05 µM. The value for `COc1ccc(/C=C/C2CCC(F)(F)CC2)cc1NC(=O)C1CCC(=O)N1C` (stereo not drawn) [Compound 22, (E)-N-(5-(2-(4,4-Difluorocyclohexyl)vinyl)-2-methoxyphenyl)-1-methyl-5-oxo-pyrrolidine-2-carboxamide] was under 0.05 µM; that for `COc1ccc(/C=C/C2CCC(F)(F)CC2)cc1NC(=O)[C@H]1CCC(=O)N1C` [Compound 23] was under 0.05 µM.

For `COc1ccc(/C=C/C2CCC(F)(F)CC2)cc1NC(=O)[C@@H]1CCC(=O)N1C` [Compound 24], the half-maximal inhibitory concentration (IC50) fell in the range of 0.05 to 0.3 µM. Under `COc1ccc(Oc2cccc(F)c2)cc1NC(=O)[C@H]1CCC(=O)N1` [Compound 25, (R)—N-(5-(3-Fluorophenoxy)-2-methoxyphenyl)-5-oxopyrrolidine-2-carboxamide] stands 0.05 to 0.3 µM; under `COc1ccc(COc2cccc(F)c2)cc1NC(=O)C1(C)CCNC1=O` (stereo not drawn) [Compound 26, N-(5-((3-Fluorophenoxy)methyl)-2-methoxyphenyl)-3-methyl-2-oxopyrrolidine-3-carboxamide], 0.301 to 2 µM. The value for `O=C1CCC(C(=O)Nc2cc(COc3cccc(F)c3)cc3c2OCO3)N1` (stereo not drawn) [Compound 27, N-(6-((3-Fluorophenoxy)methyl)benzo[d][1,3]dioxol-4-yl)-5-oxopyrrolidine-2-carboxamide] was 0.05 to 0.3 µM. The value for `CN1C(=O)CCC1C(=O)Nc1cc(Oc2cccc(C(F)(F)F)c2)cc2ccoc12` (stereo not drawn) [Compound 28, 1-Methyl-5-oxo-N-(5-(3-(trifluoromethyl)phenoxy)benzofuran-7-yl)pyrrolidine-2-carboxamide] was under 0.05 µM; that for `COc1ccc(Oc2cccc(C(F)(F)F)c2)cc1NC(=O)C1CCC(=O)N1C(C)=O` (stereo not drawn) [Compound 29, 1-Acetyl-N-(2-methoxy-5-(3-(trifluoromethyl)phenoxy)phenyl)-5-oxo-pyrrolidine-2-carboxamide] was 0.05 to 0.3 µM; that for `O=C1CCC(C(=O)Nc2cc(COc3cccc(F)c3)cc3c2OCC3)N1` (stereo not drawn) [Compound 31, N-(5-((3-Fluorophenoxy)methyl)-2,3-dihydrobenzofuran-7-yl)-5-oxopyrrolidine-2-carboxamide] was 0.301 to 2 µM. For the molecule `CN1C(=O)CCC1C(=O)Nc1cc(COc2cccc(F)c2)cc2c1OCC2` (stereo not drawn) [Compound 32, N-(5-((3-Fluorophenoxy)methyl)-2,3-dihydrobenzofuran-7-yl)-1-methyl-5-oxo-pyrrolidine-2-carboxamide], the 50% inhibitory concentration (IC50) is 0.05 to 0.3 µM. Turning to `O=C1CCC(C(=O)Nc2cc(Oc3cccc(C(F)(F)F)c3)cc3c2OCO3)N1` (stereo not drawn) [Compound 33, 5-Oxo-N-(6-(3-(trifluoromethyl)phenoxy)benzo[d][1,3]dioxol-4-yl)pyrrolidine-2-carboxamide], the IC50 was under 0.05 µM.
